Values after ≈ are worked out from the molar mass of the structure shown.
What was measured:
Format in all cases: functional
Conditions in all cases: read-out: ED50 (the source's name)
A549 = assay: Cytotoxicity against human A549 cells
SK-OV-3 = assay: Cytotoxicity against human SKOV3 cells
SK-MEL-2 = assay: Cytotoxicity against human SK-MEL-2 cells
XF498 = assay: Cytotoxicity against human XF498 cells
HCT-15 = assay: Cytotoxicity against human HCT15 cells

| Structure (SMILES) | EC50 (A549) | EC50 (SK-OV-3) | EC50 (SK-MEL-2) | EC50 (XF498) | EC50 (HCT-15) |
| --- | --- | --- | --- | --- | --- |
| C[C@H](/C=C/[C@@H](C)[C@H]1CC(O)[C@H]2[C@@H]3CC(O)[C@H]4C[C@@H](O)CC[C@]4(C)[C@H]3CC[C@]12C)[C@H](C)CO (single isomer, unassigned) [CERTONARDOSTEROL E3] | 0.54 µg/mL (≈ 1.2 µM) | 0.69 µg/mL (≈ 1.54 µM) | 0.4 µg/mL (≈ 0.891 µM) | 0.33 µg/mL (≈ 0.735 µM) | 0.73 µg/mL (≈ 1.63 µM) |
| CO[C@@H]1CO[C@@H](OCC[C@@H](CC[C@@H](C)[C@H]2[C@@H](O)[C@@H](O)[C@@H]3[C@]2(C)CC[C@@H]2[C@@]4(C)CC[C@H](O)[C@H](O)[C@@H]4[C@@H](O)C[C@]23O)C(C)C)[C@H](O)[C@H]1O [CERTONARDOSIDE I2] | 4.26 µg/mL (≈ 6.47 µM) | 3.06 µg/mL (≈ 4.64 µM) | 2.39 µg/mL (≈ 3.63 µM) | 3.69 µg/mL (≈ 5.6 µM) | 8.32 µg/mL (≈ 12.6 µM) |
| CO[C@@H]1CO[C@@H](OCC[C@@H](CC[C@@H](C)[C@H]2[C@@H](O)[C@@H](O)[C@H]3[C@@H]4C[C@H](O)[C@H]5[C@@H](O)[C@@H](O)CC[C@]5(C)[C@H]4CC[C@]23C)C(C)C)[C@H](O)[C@H]1O [CERTONARDOSIDE J2] | 3.41 µg/mL (≈ 5.3 µM) | 3.29 µg/mL (≈ 5.12 µM) | 2.36 µg/mL (≈ 3.67 µM) | 3.53 µg/mL (≈ 5.49 µM) | 8.2 µg/mL (≈ 12.8 µM) |
| CO[C@@H]1CO[C@@H](OCC[C@@H](/C=C/[C@@H](C)[C@H]2[C@@H](O)[C@@H](O)[C@H]3[C@@H]4C[C@H](O)[C@H]5[C@@H](O)[C@@H](O)CC[C@]5(C)[C@H]4CC[C@]23C)C(C)C)[C@H](O)[C@H]1O [CERTONARDOSIDE J3] | 0.83 µg/mL (≈ 1.3 µM) | 0.74 µg/mL (≈ 1.15 µM) | 0.3 µg/mL (≈ 0.468 µM) | 0.45 µg/mL (≈ 0.702 µM) | 2.76 µg/mL (≈ 4.31 µM) |
| CO[C@@H]1CO[C@@H](OCC[C@@H](CC[C@@H](C)[C@H]2[C@@H](O)[C@@H](O)[C@H]3[C@@H]4C[C@H](O)[C@H]5C[C@@H](O)CC[C@]5(C)[C@H]4CC[C@]23C)C(C)C)[C@H](O)[C@H]1O [CERTONARDOSIDE O1] | 1.25 µg/mL (≈ 1.99 µM) | 2 µg/mL (≈ 3.19 µM) | 0.68 µg/mL (≈ 1.08 µM) | 0.74 µg/mL (≈ 1.18 µM) | 2.28 µg/mL (≈ 3.64 µM) |
| CO[C@@H]1CO[C@@H](OCC[C@@H](CC[C@@H](C)[C@H]2[C@@H](O)[C@@H](O)[C@@H]3[C@]2(C)CC[C@@H]2[C@@]4(C)CC[C@H](O)C[C@@H]4[C@@H](O)C[C@]23O)C(C)C)[C@H](O)[C@H]1O [CERTONARDOSIDE P1] | 0.87 µg/mL (≈ 1.35 µM) | 0.89 µg/mL (≈ 1.38 µM) | 0.26 µg/mL (≈ 0.404 µM) | 0.35 µg/mL (≈ 0.544 µM) | 2.17 µg/mL (≈ 3.38 µM) |
| C[C@H](/C=C/[C@@H](C)[C@H]1C[C@@H](O)[C@@H]2[C@]1(C)CC[C@@H]1[C@@]3(C)CC[C@H](O)[C@H](O)[C@@H]3[C@@H](O)C[C@]12O)[C@H](C)CO [CERTONARDOSTEROL A2] | 1.75 µg/mL (≈ 3.64 µM) | 1.13 µg/mL (≈ 2.35 µM) | 0.67 µg/mL (≈ 1.39 µM) | 0.89 µg/mL (≈ 1.85 µM) | 2.54 µg/mL (≈ 5.28 µM) |
| C[C@H](/C=C/[C@@H](C)[C@H]1C[C@@H](O)[C@H]2[C@@H]3C[C@H](O)[C@H]4[C@@H](O)[C@@H](O)CC[C@]4(C)[C@H]3CC[C@@]21C)[C@H](C)CO [CERTONARDOSTEROL B2] | 2.33 µg/mL (≈ 5.01 µM) | 2.64 µg/mL (≈ 5.68 µM) | 2.23 µg/mL (≈ 4.8 µM) | 2.21 µg/mL (≈ 4.76 µM) | 2.71 µg/mL (≈ 5.83 µM) |
| C[C@H](/C=C/[C@@H](C)[C@H]1C[C@@H](O)[C@@H]2[C@]1(C)CC[C@@H]1[C@@]3(C)CC[C@H](O)C[C@@H]3[C@@H](O)C[C@]12O)[C@H](C)CO [CERTONARDOSTEROL C2] | 0.15 µg/mL (≈ 0.323 µM) | 0.16 µg/mL (≈ 0.344 µM) | < 0.1 µg/mL | 0.08 µg/mL (≈ 0.172 µM) | 0.25 µg/mL (≈ 0.538 µM) |
| CC(C)[C@H](/C=C/[C@@H](C)[C@H]1C[C@@H](O)[C@H]2[C@@H]3C[C@H](O)[C@H]4C[C@@H](O)CC[C@]4(C)[C@H]3CC[C@@]21C)CO [CERTONARDOSTEROL D2] | 0.15 µg/mL (≈ 0.334 µM) | 0.08 µg/mL (≈ 0.178 µM) | 0.09 µg/mL (≈ 0.201 µM) | 0.07 µg/mL (≈ 0.156 µM) | 0.01 µg/mL (≈ 0.0223 µM) |
| CC(C)[C@@H](CCO)CC[C@@H](C)[C@H]1C[C@@H](O)[C@H]2[C@@H]3C[C@H](O)[C@H]4C[C@@H](O)CC[C@]4(C)[C@H]3CC[C@@]21C [CERTONARDOSTEROL D3] | 1.36 µg/mL (≈ 2.93 µM) | 1.33 µg/mL (≈ 2.86 µM) | 0.68 µg/mL (≈ 1.46 µM) | 0.84 µg/mL (≈ 1.81 µM) | 2.48 µg/mL (≈ 5.34 µM) |
| C[C@H](/C=C/[C@@H](C)[C@H]1C[C@@H](O)[C@H]2[C@@H]3C[C@H](O)[C@H]4C[C@@H](O)CC[C@]4(C)[C@H]3CC[C@@]21C)[C@H](C)CO [CERTONARDOSTEROL D4] | 1.75 µg/mL (≈ 3.9 µM) | 1.51 µg/mL (≈ 3.37 µM) | 0.48 µg/mL (≈ 1.07 µM) | 1.22 µg/mL (≈ 2.72 µM) | 1.25 µg/mL (≈ 2.79 µM) |
| CC(C)[C@@H](CCO)CC[C@@H](C)[C@H]1C[C@H](O)[C@H]2[C@@H]3C[C@@H](O)[C@H]4C[C@@H](O)CC[C@]4(C)[C@H]3CC[C@@]21C [CERTONARDOSTEROL E2] | 0.48 µg/mL (≈ 1.03 µM) | 0.83 µg/mL (≈ 1.79 µM) | 0.28 µg/mL (≈ 0.602 µM) | 0.4 µg/mL (≈ 0.861 µM) | 1.26 µg/mL (≈ 2.71 µM) |
| CC(C)[C@@H](CCO)CC[C@@H](C)[C@H]1[C@@H](O)[C@@H](O)[C@H]2[C@@H]3C[C@H](O)[C@H]4C[C@@H](O)CC[C@]4(C)[C@H]3CC[C@]12C [CERTONARDOSTEROL N1] | 0.82 µg/mL (≈ 1.71 µM) | 0.9 µg/mL (≈ 1.87 µM) | 0.4 µg/mL (≈ 0.832 µM) | 0.43 µg/mL (≈ 0.894 µM) | 1.25 µg/mL (≈ 2.6 µM) |
| CC(C)[C@@H](CCO)CC[C@@H](C)[C@H]1[C@@H](O)[C@@H](O)[C@@H]2[C@]1(C)CC[C@@H]1[C@@]3(C)CC[C@H](O)C[C@@H]3[C@@H](O)C[C@]12O [CERTONARDOSTEROL O1] | 8.32 µg/mL (≈ 16.7 µM) | 6.59 µg/mL (≈ 13.3 µM) | 5.32 µg/mL (≈ 10.7 µM) | 6.92 µg/mL (≈ 13.9 µM) | 17.7 µg/mL (≈ 35.6 µM) |
| CC(C)[C@@H](CCO)CC[C@@H](C)[C@H]1[C@@H](O)[C@@H](O)[C@@H]2[C@]1(C)CC[C@@H]1[C@@]3(C)CC[C@H](O)[C@H](O)[C@@H]3[C@@H](O)C[C@]12O [CERTONARDOSTEROL P1] | 3.3 µg/mL (≈ 6.44 µM) | 3.5 µg/mL (≈ 6.83 µM) | 2.5 µg/mL (≈ 4.88 µM) | 3.48 µg/mL (≈ 6.79 µM) | 4.39 µg/mL (≈ 8.56 µM) |
| COc1cccc2c1C(=O)c1c(O)c3c(c(O)c1C2=O)C[C@@](O)(C(=O)CO)C[C@@H]3O[C@H]1C[C@H](N)[C@H](O)[C@H](C)O1 [DOXORUBICIN] | 0.01 µg/mL (≈ 0.0184 µM) | 0.08 µg/mL (≈ 0.147 µM) | 0.02 µg/mL (≈ 0.0368 µM) | 0.06 µg/mL (≈ 0.11 µM) | 0.06 µg/mL (≈ 0.11 µM) |

Reference: ChEMBL document CHEMBL1151168, “Cytotoxic sterols and saponins from the starfish Certonardoa semiregularis” (2004)
